Data taken from patent US7220748B2, “Use of 4-(2-Flurophenyl)-6-methyl-2-(1-piperazinyl)thieno(2,3-D)-pyrimidine for treating of urinary incontinence” (Arachnova Therapeutics Ltd., priority 2002, dated 2007).
Several values for one entry are separate records, joined by “and”; a condition that tells them apart may be missing. Identical values can stand only once.

Test system: urethra/internal sphincter
Assay: Urethral perfusion pressure, vesicular pressure and external sphincter EMG in anaesthetised female rats
Format: in vivo, rat
Procedure: Female Sprague-Dawley rats (225–350 g) were anaesthetised using urethane. The bladder was exposed through a midline incision into the abdomen and intravesicular pressure was recorded via a catheter inserted into the bladder. A second catheter was inserted into the bladder to allow infusion of saline using a syringe pump when required. A third catheter was inserted into the bladder and wedged into position in the neck of the bladder with the catheter extending into the urethra. This set-up allowed constant infusion of saline into the urethra whilst urethral pressure was recorded. Changes in urethral pressure are assumed to reflect changes in urethral resistance. In each animal, electromyographic (EMG) recordings were made of urethral striated muscle activity by inserting 2 fine copper electrodes either side of the urethral opening.
Once stable, bladder and urethral pressures were recorded, the bladder was inflated by direct infusion of physiological saline into the bladder at a rate of 0.046 ml/min. This rate approximates the maximum hourly diuresis rate. Infusion into the bladder was terminated prior to evoking micturition and the bladder volume maintained. During and after saline infusion, simultaneous recordings were made of urethral perfusion pressure and of external sphincter EMG activity. Once these parameters had stabilised, autonomic drive to the lower urinary tract was inhibited by administration of hexamethonium (10 mg/kg i.v.) and changes to urethral perfusion pressure and external sphincter EMG recorded. Decamethonium (30 mg/kg i.v.) was then added to remove striated muscle activity. In one group of animals, prior to intravesicular infusion of saline a single bolus dose of MCI-225 was administered (3 mg/kg i.v.). In a second group of animals a bolus dose of vehicle was administered. The effect of MCI-225 and vehicle was determined by analysing the changes in urethral perfusion pressure and external sphincter EMG activity during and after infusion and following administration of the ganglion blocker hexamethonium and then finally decamethonium to block the striated muscle activity of the external sphincter.

For `Cc1cc2c(-c3ccccc3F)nc(N3CCNCC3)nc2s1.Cl.O` [MCI-225, 4-(2-Fluorophenyl)-6-methyl-2-(1-piperazinyl)thieno[2,3-D]pyrimidine monohydrate hydrochloride], the “Effect on tone of the urethra/internal sphincter” value (3 mg/kg i.v., anaesthetised female rats) was “increased the tone of the urethra/internal sphincter”, the “Decrease in urethral perfusion pressure after decamethonium, from values before hexamethonium” value (3 mg/kg i.v., after hexamethonium 10 mg/kg i.v. then decamethonium 30 mg/kg i.v., vehicle 44±4%) was 64±7% and the “Fall in external sphincter activity (EUS-EMG) after hexamethonium” value (3 mg/kg i.v., after hexamethonium 10 mg/kg i.v., compared with vehicle-treated animals) was “Larger falls”. The “Drop in urethral perfusion pressure after hexamethonium” value (3 mg/kg i.v., after hexamethonium 10 mg/kg i.v., vehicle 35±7%) was 55±5%, the “Increase in urethral pressure from baseline” value (3 mg/kg i.v., baseline vs after intravesicular infusion, p=0.04 Students t test, vehicle 29%) was 77% and the “Vesicular pressure (VP) after intravesicular infusion” value (anaesthetized female rats, after intravesicular saline infusion, 3 mg kg^-1 i.v., n=3) was 8 ± 1 mmHg. For the same compound, the “Urethral perfusion pressure (UP) after intravesicular infusion” value (anaesthetized female rats, after intravesicular saline infusion, 3 mg kg^-1 i.v., n=3, monohydrate hydrochloride) was 23±2 mmHg and the “Baseline urethral perfusion pressure (UP)” value (anaesthetized female rats, baseline before intravesicular infusion, 3 mg kg^-1 i.v., n=3, monohydrate hydrochloride) was 13±1 mmHg and 13 ± 2 mmHg.
